Measurements taken from patent US7759345B2, “Antitumoral derivatives of ET-743” (priority 2001, dated 2010).
Like-named read-outs stand apart in the source and are kept apart here.

Experiments:
A-549 = assay: Inhibition of cell growth by counting cells, A-549; format: cell-based, human; details: three days of incubation, read-out: IC50 (molar) A-549
Method: (§1) 1°.—Inhibition of Cell Growth by Counting Cells.
(§2) This form of the assay employs 24 well multidishes of 16 mm diameter (Bergeron, 1984; Schroeder, 1981). The tumor cell lines employed are: P-388 (ATCC CCL 46), suspension culture of a lymphoid neoplasm from a DBA/2 mouse; A-549 (ATCC CCL 185), monolayer culture of a human lung carcinoma; HT-29 (ATCC HTB-38), monolayer culture of a human colon carcinoma; MEL-28 (ATCC HTB-72), monolayer culture of a human melanoma and DU-145 (ATCC HTB-81), monolayer culture of a human prostate carcinoma.
(§3) Cells were maintained, in logarithmic phase of growth in Eagle's Minimum Essential Medium, with Earle's Balanced Salts, with non-essential amino acids, with 2.0 mM L-Glutamine, without sodium bicarbonate (EMEM/neaa), supplemented with 10% Fetal Calf Serum (FCS), 10^−2 M. sodium bicarbonate and 0.1 U/l penicillin G+0.1 g/l streptomycin sulfate. For the experiments, cells are harvested from subconfluent cultures using trypsin and resuspended in fresh medium before plating.
(§4) A-549, HT-29, MEL-28 and DU-145 cells were seeded into 16 mm diameter wells at 1×10^4 cells per well in 1 ml aliquots of EMEM 5% FCS containing different concentrations of the sample to be tested. A separate set of cultures without drug was seeded as control of growth, to ensure that cells remained in exponential phase of growth. All determinations are carrying out in duplicate. After three days of incubation at 37° C., 5% CO2 in a 98% humid atmosphere cells were stained with 0.1% crystal violet. An approximately IC50 was determined by comparing the growth in wells with drug to the growth in wells control.
(§5) For quantifying the activity, after the incubation time, cells are trypsinized and counted in a Coulter Counter ZM. All counts (net cells per well), represent the average of duplicate wells. % G, percent of growth relative to cultures without drug. The results of these assays are used to generate dose-response curves from which more precise IC50 values are determined (sample concentration which produces 50% cell growth inhibition).
(§6) Obtained results may predict the usefulness of a certain drug as a potential cancer treatment. For this technique, compounds which show IC50 values smaller than 1 μg/ml are selected to continue with further studies. IC50's data allow to predict that not only could a drug be cystostatic, but also it could have a potential in terms of tumor reduction.

HT-29 = assay: Inhibition of cell growth by counting cells, HT-29; format: cell-based, human; details: three days of incubation, read-out: IC50 (molar) HT-29
Method: as §1, §2, §3, §4, §5, §6

Compound	IC50 (A-549; Homo sapiens, A549, 72 h) [nM]	IC50 (HT-29; Homo sapiens, HT-29, 72 h) [nM]	IC50 (A-549) [nM]	IC50 (HT-29) [nM]
COc1cc2c(cc1OC(=O)OCc1ccccc1)CCN[C@]21CS[C@@H]2c3c(OC(C)=O)c(C)c4c(c3[C@H](COC1=O)N1C2[C@H]2c3c(cc(C)c(OC)c3OC(=O)OCc3ccccc3)C[C@@H]([C@@H]1O)N2C)OCO4 (some centres unmarked) [Compound 85]	9.71	9.71		
COc1cc2c(cc1OC(=O)OC(C)(C)C)CCN[C@]21CS[C@@H]2c3c(OC(=O)OC(C)(C)C)c(C)c4c(c3[C@H](COC1=O)N1C2[C@H]2c3c(cc(C)c(OC)c3O)C[C@@H]([C@@H]1C#N)N2C)OCO4 (some centres unmarked) [Compound 108]	0.108	0.108		
COc1cc2c(cc1OC(=O)OC(C)(C)C)CCN[C@]21CS[C@@H]2c3c(OC(=O)C(F)(F)F)c(C)c4c(c3[C@H](COC1=O)N1C2[C@H]2c3c(cc(C)c(OC)c3OC(=O)C(F)(F)F)C[C@@H]([C@@H]1C#N)N2C)OCO4 (some centres unmarked) [Compound 109]	0.98	0.98		
COc1cc2c(cc1OC(=O)OC(C)(C)C)CCN[C@]21CS[C@@H]2c3c(OC(=O)OC(C)(C)C)c(C)c4c(c3[C@H](COC1=O)N1C2[C@H]2c3c(cc(C)c(OC)c3OC(=O)OC(C)(C)C)C[C@@H]([C@@H]1C#N)N2C)OCO4 (some centres unmarked) [Compound 110]	0.0972	0.0972		
CCCC(=O)Oc1c(C)c2c(c3c1[C@H]1SC[C@]4(NCCc5cc(OC(=O)OC(C)(C)C)c(OC)cc54)C(=O)OC[C@@H]3N3C1[C@H]1c4c(cc(C)c(OC)c4OC(=O)CCC)C[C@@H]([C@@H]3C#N)N1C)OCO2 (some centres unmarked) [Compound 112]	10.3	10.3		
COc1cc2c(cc1OC(=O)OC(C)(C)C)CCN[C@]21CS[C@@H]2c3c(OC(=O)/C=C/c4ccccc4)c(C)c4c(c3[C@H](COC1=O)N1C2[C@H]2c3c(cc(C)c(OC)c3OC(=O)/C=C/c3ccccc3)C[C@@H]([C@@H]1C#N)N2C)OCO4 (some centres unmarked) [Compound 114]	9.18	9.18		
C=CCOC(=O)Oc1c(C)c2c(c3c1[C@H]1SC[C@]4(NCCc5cc(OC(=O)OC(C)(C)C)c(OC)cc54)C(=O)OC[C@@H]3N3C1[C@H]1c4c(cc(C)c(OC)c4O)C[C@@H]([C@@H]3C#N)N1C)OCO2 (some centres unmarked) [Compound 115]	0.11	0.11		
COc1cc2c(cc1OC(=O)OC(C)(C)C)CCN[C@]21CS[C@@H]2c3c(OC(=O)CCCl)c(C)c4c(c3[C@H](COC1=O)N1C2[C@H]2c3c(cc(C)c(OC)c3O)C[C@@H]([C@@H]1C#N)N2C)OCO4 (some centres unmarked) [Compound 116]	0.109	0.109		
COc1cc2c(cc1OC(=O)OC(C)(C)C)CCN[C@]21CS[C@@H]2c3c(OC)c(C)c4c(c3[C@H](COC1=O)N1C2[C@H]2c3c(cc(C)c(OC)c3O)C[C@@H]([C@@H]1C#N)N2C)OCO4 (some centres unmarked) [Compound 126]			0.119	0.119
COc1cc2c(cc1OC(=O)OC(C)(C)C)CCN[C@]21CS[C@@H]2c3c(OC)c(C)c4c(c3[C@H](COC1=O)N1C2[C@H]2c3c(cc(C)c(OC)c3OC)C[C@@H]([C@@H]1C#N)N2C)OCO4 (some centres unmarked) [Compound 127]			0.117	0.117
CCOc1c(C)c2c(c3c1[C@H]1SC[C@]4(NCCc5cc(OC(=O)OC(C)(C)C)c(OC)cc54)C(=O)OC[C@@H]3N3C1[C@H]1c4c(cc(C)c(OC)c4O)C[C@@H]([C@@H]3C#N)N1C)OCO2 (some centres unmarked) [Compound 128]	1.17	1.17		
CCOc1c(C)c2c(c3c1[C@H]1SC[C@]4(NCCc5cc(OC(=O)OC(C)(C)C)c(OC)cc54)C(=O)OC[C@@H]3N3C1[C@H]1c4c(cc(C)c(OC)c4OCC)C[C@@H]([C@@H]3C#N)N1C)OCO2 (some centres unmarked) [Compound 129]	11.3	11.3		
CCCOc1c(C)c2c(c3c1[C@H]1SC[C@]4(NCCc5cc(OC(=O)OC(C)(C)C)c(OC)cc54)C(=O)OC[C@@H]3N3C1[C@H]1c4c(cc(C)c(OC)c4O)C[C@@H]([C@@H]3C#N)N1C)OCO2 (some centres unmarked) [Compound 130]	1.15	1.15		
CCCOc1c(C)c2c(c3c1[C@H]1SC[C@]4(NCCc5cc(OC(=O)OC(C)(C)C)c(OC)cc54)C(=O)OC[C@@H]3N3C1[C@H]1c4c(cc(C)c(OC)c4OCCC)C[C@@H]([C@@H]3C#N)N1C)OCO2 (some centres unmarked) [Compound 131]	110	110		
C=CCOc1c(C)c2c(c3c1[C@H]1SC[C@]4(NCCc5cc(OC(=O)OC(C)(C)C)c(OC)cc54)C(=O)OC[C@@H]3N3C1[C@H]1c4c(cc(C)c(OC)c4O)C[C@@H]([C@@H]3C#N)N1C)OCO2 (some centres unmarked) [Compound 132]	1.15	1.15		
C=CCOc1c(C)c2c(c3c1[C@H]1SC[C@]4(NCCc5cc(OC(=O)OC(C)(C)C)c(OC)cc54)C(=O)OC[C@@H]3N3C1[C@H]1c4c(cc(C)c(OC)c4OCC=C)C[C@@H]([C@@H]3C#N)N1C)OCO2 (some centres unmarked) [Compound 133]	110	110		
COc1cc2c(cc1O)CCN[C@]21CS[C@@H]2c3c(OC(=O)/C=C/c4ccccc4)c(C)c4c(c3[C@H](COC1=O)N1C2[C@H]2c3c(cc(C)c(OC)c3OC(=O)/C=C/c3ccccc3)C[C@@H]([C@@H]1C#N)N2C)OCO4 (some centres unmarked) [Compound 138]	1.01	1.01		
CCCC(=O)Oc1c(C)c2c(c3c1[C@H]1SC[C@]4(NCCc5cc(O)c(OC)cc54)C(=O)OC[C@@H]3N3C1[C@H]1c4c(cc(C)c(OC)c4O)C[C@@H]([C@@H]3C#N)N1C)OCO2 (some centres unmarked) [Compound 139]	1.25	1.25		
CCCC(=O)Oc1c(C)c2c(c3c1[C@H]1SC[C@]4(NCCc5cc(O)c(OC)cc54)C(=O)OC[C@@H]3N3C1[C@H]1c4c(cc(C)c(OC)c4OC(=O)CCC)C[C@@H]([C@@H]3C#N)N1C)OCO2 (some centres unmarked) [Compound 140]	1.15	1.15		
C=CCOC(=O)Oc1c(C)c2c(c3c1[C@H]1SC[C@]4(NCCc5cc(O)c(OC)cc54)C(=O)OC[C@@H]3N3C1[C@H]1c4c(cc(C)c(OC)c4O)C[C@@H]([C@@H]3C#N)N1C)OCO2 (some centres unmarked) [Compound 141]			0.123	0.123
COc1cc2c(cc1O)CCN[C@]21CS[C@@H]2c3c(OC(=O)CCCl)c(C)c4c(c3[C@H](COC1=O)N1C2[C@H]2c3c(cc(C)c(OC)c3O)C[C@@H]([C@@H]1C#N)N2C)OCO4 (some centres unmarked) [Compound 142]	1.22	1.22		
CCCCCCCC(=O)Oc1c(C)c2c(c3c1[C@H]1SC[C@]4(NCCc5cc(O)c(OC)cc54)C(=O)OC[C@@H]3N3C1[C@H]1c4c(cc(C)c(OC)c4OC(=O)CCCCCCC)C[C@@H]([C@@H]3C#N)N1C)OCO2 (some centres unmarked) [Compound 145]	102	102		
COc1cc2c(cc1O)CCN[C@]21CS[C@@H]2c3c(OC)c(C)c4c(c3[C@H](COC1=O)N1C2[C@H]2c3c(cc(C)c(OC)c3O)C[C@@H]([C@@H]1C#N)N2C)OCO4 (some centres unmarked) [Compound 149]	0.135	0.135		
COc1cc2c(cc1O)CCN[C@]21CS[C@@H]2c3c(OC)c(C)c4c(c3[C@H](COC1=O)N1C2[C@H]2c3c(cc(C)c(OC)c3OC)C[C@@H]([C@@H]1C#N)N2C)OCO4 (some centres unmarked) [Compound 150]	1.32	1.32		
CCOc1c(C)c2c(c3c1[C@H]1SC[C@]4(NCCc5cc(O)c(OC)cc54)C(=O)OC[C@@H]3N3C1[C@H]1c4c(cc(C)c(OC)c4O)C[C@@H]([C@@H]3C#N)N1C)OCO2 (some centres unmarked) [Compound 151]	0.132	0.132		
CCOc1c(C)c2c(c3c1[C@H]1SC[C@]4(NCCc5cc(O)c(OC)cc54)C(=O)OC[C@@H]3N3C1[C@H]1c4c(cc(C)c(OC)c4OCC)C[C@@H]([C@@H]3C#N)N1C)OCO2 (some centres unmarked) [Compound 152]	12.8	12.8		
CCCOc1c(C)c2c(c3c1[C@H]1SC[C@]4(NCCc5cc(O)c(OC)cc54)C(=O)OC[C@@H]3N3C1[C@H]1c4c(cc(C)c(OC)c4O)C[C@@H]([C@@H]3C#N)N1C)OCO2 (some centres unmarked) [Compound 153]			0.13	0.13
C=CCOc1c(C)c2c(c3c1[C@H]1SC[C@]4(NCCc5cc(O)c(OC)cc54)C(=O)OC[C@@H]3N3C1[C@H]1c4c(cc(C)c(OC)c4O)C[C@@H]([C@@H]3C#N)N1C)OCO2 (some centres unmarked) [Compound 155]	1.3	1.3		
